# Literature values as cited in patent publication US10092573B2, “Gastric and colonic formulations and methods for making and using them” (Salix Pharmaceuticals, Inc., priority 2010, dated 2018).
# Entries after “also recorded” stand apart in the source; their conditions may differ. Read-outs that look alike come from different tables or passages of the source.
# Legend:
# [1] = not given; remark: listed apart in the source
SMILES,"effect on creatinine, urea or electrolytes (sodium, potassium, chloride, phosphate) output (24 hour output, renal)",doses with no recorded significant human gastroenterological side effects (human),"carcinogenic, mutagenic or teratogenic potential (in vivo)",share of the ingested erythritol that enters the colon (in vivo),systemic metabolism and excretion of absorbed erythritol (in vivo),toxicological effects in safety studies (in vivo),association with ischemic colitis ([1]; 10 mg tablet form in combination with HALFLYTELY),association with ischemic colitis ([1]; doses of 20 mg),"ischemic colitis ([1]; widespread chronic use at a lower dosage range, often daily, for constipation or bloating)"
"OC[C@@H](O)[C@@H](O)CO [Erythritol, (2R,3S)-butane-1,2,3,4-tetraol]",no effect; also recorded: does not influence,up to 1000 mg/kg body weight/day,does not have any,about 10%,not metabolized systemically and is excreted unchanged in urine,no toxicological effects,–,–,–
"CC(=O)Oc1ccc(C(c2ccc(OC(C)=O)cc2)c2ccccn2)cc1 [Bisacodyl, 4,4′-(pyridin-2-ylmethylene) bis(4,1-phenylene) diacetate]",–,–,–,–,–,–,less frequently,on rare occasions,No ischemic colitis has been consistently observed or reported
